Data from patent US11034648B2, “Cystobactamide derivatives” (priority 2017, dated 2021).
Converted amounts (≈) assume the structure as drawn. Where two headings read alike, the source gives them in different places.

What was measured:
Assay type in all cases: cell-based
E. coli ΔtolC = assay: microbe, parasite or virus in culture; conditions: Escherichia coli, 16 h, read-out: MIC E. coli ΔtolC, small panel, Tables 1a/1b; no visual growth after approx. 16 h
Experimental: (§1) Cystobactamid derivatives synthesized were tested against relevant Gram negative and positive bacteria of clinical interest. Experimental procedures used for the biological characterization of the compounds are the same as previously described in WO 2016/082934.
(§2) Bacterial strains used in susceptibility assays (minimum inhibitory concentration, MIC) were either part of our internal strain collection or purchased from the German Collection of Microorganisms and Cell Cultures (Deutsche Sammlung von Mikroorganismen und Zellkulturen, DSMZ) and the American Type Culture Collection (ATCC). The susceptible E. coli strain (WT) and fluoroquinolone-resistant mutants E. coli WT-3 and WT-III were kindly provided by Prof Dr. P. Heisig, Pharmaceutical Biology and Microbiology, University of Hamburg, Germany. The efflux-deficient strain P. aeruginosa ΔmexAB was kindly provided by Prof Dr. S. Häußler, Institute for Molecular Bacteriology, TWINCORE, Hannover, Germany. All compounds were prepared as DMSO stocks and MIC values were determined in standard microbroth dilution assays in 96-well MTPs as described in Baumann et al., Angew Chem Int Ed Engl. 2014; 53(52):14605-9. In brief, overnight cultures of bacteria were diluted in either tryptic soy broth (TSB: 1.7% peptone casein, 0.3% peptone soymeal, 0.25% glucose, 0.5% NaCl, 0.25% K2HPO4; pH 7.3; S. pneumoniae and E. faecalis) or cation-adjusted Müller-Hinton Broth (BBL™, BD; all other bacteria) and adjusted to 10^4-10^6 cfu/mL. Bacteria were grown in the presence of the derivatives in serial dilution for approx. 16 h at 30-37° C. MIC values were determined and were defined as the antibiotic concentration at which no visual growth of bacteria was observed.

P. aeruginosa ΔmexAB = assay: microbe, parasite or virus in culture; conditions: Pseudomonas aeruginosa, 16 h, read-out: MIC P. aeruginosa ΔmexAB, efflux-deficient strain; small panel, Tables 1a/1b
Experimental: as §1, §2

A. baumannii DSM-30008 = assay: MIC, microbroth dilution susceptibility assay; conditions: Acinetobacter baumannii, DSM30008; large panel, Table 2a
Experimental: as §1, §2

C. freundii DSM-30039 = assay: MIC, microbroth dilution susceptibility assay; conditions: Citrobacter freundii, DSM30039; large panel, Table 2a
Experimental: as §1, §2

E. aerogenes DSM-30053 = assay: MIC, microbroth dilution susceptibility assay; conditions: Klebsiella aerogenes, DSM30053; large panel, Table 2a
Experimental: as §1, §2

E. coli WT DSM-1116 = assay: MIC, microbroth dilution susceptibility assay; conditions: Escherichia coli, no visual growth after approx. 16 h
Experimental: as §1, §2

E. coli WT = assay: MIC, microbroth dilution susceptibility assay; conditions: Escherichia coli; large panel, Table 2a
Experimental: as §1, §2

K. pneumoniae DSM-30104 = assay: MIC, microbroth dilution susceptibility assay; conditions: Klebsiella pneumoniae, DSM30104; large panel, Table 2a
Experimental: as §1, §2

P. aeruginosa WT PA14 = assay: MIC, microbroth dilution susceptibility assay; conditions: Pseudomonas aeruginosa
Experimental: as §1, §2

P. vulgaris DSM-2140 = assay: MIC, microbroth dilution susceptibility assay; conditions: Proteus vulgaris, DSM2140; large panel, Table 2a
Experimental: as §1, §2

S. aureus ATCC-29213 = assay: MIC, microbroth dilution susceptibility assay; conditions: Staphylococcus aureus, ATCC29213; large panel, Table 2a
Experimental: as §1, §2

S. aureus Newman = assay: MIC, microbroth dilution susceptibility assay; conditions: Staphylococcus aureus, NEWMAN, read-out: MIC S. aureus Newman
Experimental: as §1, §2

S. marcescens DSM-30121 = assay: MIC, microbroth dilution susceptibility assay; conditions: Serratia marcescens, DSM30121; large panel, Table 2a
Experimental: as §1, §2

[1] = DSM1116, small panel, Tables 1a/1b, read-out: MIC E. coli WT DSM-1116
[2] = PA14, small panel, Tables 1a/1b, read-out: MIC P. aeruginosa WT PA14

Compound | MIC (E. coli ΔtolC) | MIC (P. aeruginosa ΔmexAB) | MIC (A. baumannii DSM-30008) | MIC (C. freundii DSM-30039) | MIC (E. aerogenes DSM-30053) | MIC (E. coli WT DSM-1116; [1]) | MIC (E. coli WT) | MIC (K. pneumoniae DSM-30104) | MIC (P. aeruginosa WT PA14; [2]) | MIC (P. vulgaris DSM-2140) | MIC (S. aureus ATCC-29213) | MIC (S. aureus Newman; small panel, Tables 1a/1b) | MIC (S. marcescens DSM-30121) | MIC (E. coli WT DSM-1116; DSM1116, 16 h, read-out: MIC E. coli WT DSM-1116, small panel, Tables 1a/1b) | MIC (P. aeruginosa WT PA14; PA14, read-out: MIC P. aeruginosa WT PA14) | MIC (S. aureus Newman)
CC(C)Oc1c(NC(=O)c2ccc(NC(=O)c3ccc(NC(=O)[C@H](CC(N)=O)NC(=O)c4ccc(NC(=O)c5ccc(C#N)cc5)cc4)cc3)c(OC(C)C)c2O)ccc(C(=O)O)c1O [Compound 62, (S)-4-(4-(4-(4-amino-2-(4-(4-cyanobenzamido)benzamido)-4-oxobutanamido)benzamido)-2-hydroxy-3-isopropoxybenzamido)-2-hydroxy-3-isopropoxybenzoic acid] | ≤ 0.03 µg/mL | 1 µg/mL (≈ 1.13 µM) | 0.5 µg/mL (≈ 0.564 µM) | 0.125 µg/mL (≈ 0.141 µM) | > 64 µg/mL | 0.25 µg/mL (≈ 0.282 µM) | 0.125 to 0.25 µg/mL (≈ 0.141 to 0.282 µM) | > 64 µg/mL | > 64 µg/mL | 0.25 µg/mL (≈ 0.282 µM) | 0.025 µg/mL (≈ 0.0282 µM) | ≤ 0.03 µg/mL | > 64 µg/mL | – | – | –
CC(C)Oc1c(NC(=O)c2ccc(NC(=O)c3ccc(NC(=O)[C@H](CC(N)=O)NC(=O)c4ccc(NC(=O)c5ccc([N+](=O)[O-])cc5)cc4)cc3)c(OC(C)C)c2O)ccc(C(=O)O)c1O [Compound 61, (S)-4-(4-(4-(4-amino-2-(4-(4-nitrobenzamido)benzamido)-4-oxobutanamido)benzamido)-2-hydroxy-3-isopropoxybenzamido)-2-hydroxy-3-isopropoxybenzoic acid] | 0.125 to 0.25 µg/mL (≈ 0.138 to 0.276 µM) | 1 to 2 µg/mL (≈ 1.1 to 2.21 µM) | 1 µg/mL (≈ 1.1 µM) | 0.5 µg/mL (≈ 0.552 µM) | > 64 µg/mL | 0.5 µg/mL (≈ 0.552 µM) | 0.5 µg/mL (≈ 0.552 µM) | > 64 µg/mL | > 64 µg/mL | 0.5 µg/mL (≈ 0.552 µM) | 0.05 µg/mL (≈ 0.0552 µM) | 0.05 µg/mL (≈ 0.0552 µM) | > 64 µg/mL | – | – | –
C/C(=C/c1ccc(C#N)cc1)C(=O)Nc1ccc(C(=O)N[C@@H](CC(N)=O)C(=O)Nc2ccc(C(=O)Nc3ccc(C(=O)Nc4ccc(C(=O)O)cc4)c(O)c3OC(C)C)cc2)cc1 [Compound 122, (S,Z)-4-(4-(4-(4-amino-2-(4-(3-(4-cyanophenyl)-2-methylacrylamido)benzamido)-4-oxobutanamido)benzamido)-2-hydroxy-3-isopropoxybenzamido)benzoic acid] | 0.25 µg/mL (≈ 0.293 µM) | > 64 µg/mL | – | – | – | 1 µg/mL (≈ 1.17 µM) | – | – | > 64 µg/mL | – | – | 8 µg/mL (≈ 9.39 µM) | – | – | – | –
CC(C)Oc1c(NC(=O)c2ccc(NC(=O)[C@H](CC(N)=O)NC(=O)c3ccc(NC(=O)c4ccc(C#N)cc4)cc3)cc2)ccc(C(=O)NC2CCNCC2)c1O [Compound 91, (S)-2-(4-(4-cyanobenzamido)benzamido)-N1-(4-((3-hydroxy-2-isopropoxy-4-(piperidin-4-ylcarbamoyl)phenyl)carbamoyl)phenyl)succinamide] | > 64 µg/mL | > 64 µg/mL | – | – | – | > 64 µg/mL | – | – | > 64 µg/mL | – | – | > 64 µg/mL | – | – | – | –
CC(C)Oc1c(NC(=O)c2ccc(NC(=O)[C@H](CC(N)=O)NC(=O)c3ccc(NC(=O)c4ccccc4[N+](=O)[O-])cc3)cc2)ccc(C(=O)Nc2ccc(C(=O)O)cc2)c1O [Compound 43, (S)-4-(4-(4-(4-amino-2-(4-(2-nitrobenzamido)benzamido)-4-oxobutanamido)benzamido)-2-hydroxy-3-isopropoxybenzamido)benzoic acid] | 2 µg/mL (≈ 2.4 µM) | > 64 µg/mL | – | – | – | > 64 µg/mL | – | – | > 64 µg/mL | – | – | > 64 µg/mL | – | – | – | –
CC(C)Oc1c(NC(=O)c2ccc(NC(=O)[C@H](CC(N)=O)NC(=O)c3ccc(NC(=O)C(C)Oc4ccccc4)cc3)cc2)ccc(C(=O)Nc2ccc(C(=O)O)cc2)c1O (stereo partly drawn) [Compound 54, 4-(4-(4-((2S)-4-amino-4-oxo-2-(4-(2-phenoxypropanamido)benzamido)butanamido)benzamido)-2-hydroxy-3-isopropoxybenzamido)benzoic acid] | 4 µg/mL (≈ 4.81 µM) | > 64 µg/mL | – | – | – | > 64 µg/mL | – | – | > 64 µg/mL | – | – | > 64 µg/mL | – | – | – | –
Cc1cc(C#N)ccc1C(=O)Nc1ccc(C(=O)N[C@@H](CC(N)=O)C(=O)Nc2ccc(C(=O)Nc3ccc(C(=O)Nc4ccc(C(=O)O)cc4)c(O)c3OC(C)C)cc2)cc1 [Compound 50, (S)-4-(4-(4-(4-amino-2-(4-(4-cyano-2-methylbenzamido)benzamido)-4-oxobutanamido)benzamido)-2-hydroxy-3-isopropoxybenzamido)benzoic acid] | 0.03 µg/mL (≈ 0.0363 µM) | 2 µg/mL (≈ 2.42 µM) | – | – | – | 0.5 µg/mL (≈ 0.605 µM) | – | – | > 64 µg/mL | – | – | 64 µg/mL (≈ 77.5 µM) | – | – | – | –
CC(C)Oc1c(NC(=O)c2ccc(NC(=O)[C@H](CC(N)=O)NC(=O)c3ccc(NC(=O)c4ccc(C#N)cc4)cc3)cc2)ccc(C(=O)Nc2cc(C(=O)O)n(C)c2)c1O [Compound 88, (S)-4-(4-(4-(4-amino-2-(4-(4-cyanobenzamido)benzamido)-4-oxobutanamido)benzamido)-2-hydroxy-3-isopropoxybenzamido)-1-methyl-1H-pyrrole-2-carboxylic acid] | < 0.03 µg/mL | 8 µg/mL (≈ 9.82 µM) | – | – | – | 0.5 µg/mL (≈ 0.614 µM) | – | – | > 64 µg/mL | – | – | 64 µg/mL (≈ 78.5 µM) | – | – | – | –
C/C(=C\c1ccc(C#N)cc1)C(=O)Nc1ccc(C(=O)N[C@@H](CC(N)=O)C(=O)Nc2ccc(C(=O)Nc3ccc(C(=O)Nc4ccc(C(=O)O)cc4)c(O)c3OCC(C)C)cc2)cc1 [Compound 125, (S,E)-4-(4-(4-(4-amino-2-(4-(3-(4-cyanophenyl)-2-methylacrylamido)benzamido)-4-oxobutanamido)benzamido)-2-hydroxy-3-isobutoxybenzamido)benzoic acid] | 0.06 µg/mL (≈ 0.0693 µM) | > 64 µg/mL | – | – | – | 0.5 µg/mL (≈ 0.577 µM) | – | – | > 64 µg/mL | – | – | 0.06 µg/mL (≈ 0.0693 µM) | – | – | – | –
CC(C)Oc1c(NC(=O)c2ccc(NC(=O)[C@H](CC(N)=O)NC(=O)c3ccc(NC(=O)c4ccc(C(F)(F)F)cc4)cc3)cc2)ccc(C(=O)Nc2ccc(C(=O)O)cc2)c1O [Compound 45, (S)-4-(4-(4-(4-amino-4-oxo-2-(4-(4-(trifluoromethyl)benzamido)benzamido)butanamido)benzamido)-2-hydroxy-3-isopropoxybenzamido)benzoic acid] | ≤ 0.03 µg/mL | > 64 µg/mL | – | – | – | 0.5 µg/mL (≈ 0.585 µM) | – | – | > 64 µg/mL | – | – | 16 to 32 µg/mL (≈ 18.7 to 37.4 µM) | – | – | – | –
CC(C)Oc1c(NC(=O)c2ccc(NC(=O)[C@H](CC(N)=O)NC(=O)c3ccc(C#Cc4ccc(C#N)cc4)cc3)cc2)ccc(C(=O)Nc2ccc(C(=O)O)cc2)c1O [Compound 128, (S)-4-(4-(4-(4-Amino-2-(4-((4-cyanophenyl)ethynyl)benzamido)-4-oxobutanamido)benzamido)-2-hydroxy-3-isopropoxybenzamido)benzoic acid] | 0.06 µg/mL (≈ 0.0757 µM) | 0.5 µg/mL (≈ 0.631 µM) | – | – | – | – | – | – | – | – | – | – | – | 0.06 µg/mL (≈ 0.0757 µM) | > 64 µg/mL | < 0.03 µg/mL
CC(C)Oc1c(NC(=O)c2ccc(NC(=O)[C@H](CC(N)=O)NC(=O)c3ccc(NC(=O)c4ccc(C#N)cc4)cc3)cc2)ccc(C(=O)NCc2ccc(C(=O)O)cc2)c1O [Compound 89, (S)-4-((4-(4-(4-amino-2-(4-(4-cyanobenzamido)benzamido)-4-oxobutanamido)benzamido)-2-hydroxy-3-isopropoxybenzamido)methyl)benzoic acid] | 0.25 µg/mL (≈ 0.303 µM) | > 64 µg/mL | – | – | – | > 64 µg/mL | – | – | > 64 µg/mL | – | – | > 64 µg/mL | – | – | – | –
CC(C)Oc1c(NC(=O)c2ccc(NC(=O)[C@H](CC(N)=O)NC(=O)c3ccc(NC(=O)c4ccc(C#N)cc4)cc3)cc2)ccc(C(=O)Nc2ccc(S(=O)(=O)O)cc2)c1O [Compound 92, (S)-4-(4-(4-(4-amino-2-(4-(4-cyanobenzamido)benzamido)-4-oxobutanamido)benzamido)-2-hydroxy-3-isopropoxybenzamido)benzenesulfonic acid] | 0.25 µg/mL (≈ 0.295 µM) | > 64 µg/mL | – | – | – | > 64 µg/mL | – | – | > 64 µg/mL | – | – | > 64 µg/mL | – | – | – | –
